Reference: patent publication US7307063B2, “Melanocortin metallopeptides for treatment of sexual dysfunction” (Palatin Technologies, Inc., priority 2001, dated 2007)
“And” between values parts separate entries of the source, which are not always exact repeats. Identical values can stand only once. Non-standard residues stand in square brackets, D forms with d. No end group written: not given here. *: point of attachment. Tiq = 1,2,3,4-tetrahydroisoquinoline-1-carboxylic acid; Phenylacetyl(4-Ph) = O=C(Cc1ccc(-c2ccccc2)cc1)*; Acetyl(2-naphthyl) = O=C(Cc1ccc2ccccc2c1)*; dDip = N[C@@H](C(=O)O)C(c1ccccc1)c1ccccc1; dIgl = N[C@@H](C(=O)O)C1Cc2ccccc2C1; Hydrocinnamoyl = O=C(CCc1ccccc1)*; Igl = N[C@H](C(=O)O)C1Cc2ccccc2C1; d(pGlu) = O=C1CC[C@H](C(=O)O)N1; code Z = not defined here; Nle = CCCC[C@H](N)C(=O)O; Ac5c = NC1(C(=O)O)CCCC1

Columns and labels:
MC1-R = biological target: T1, MC1-R (Mus musculus, UniProt Q01727); experiment: Competitive binding assay: inhibition of 125I-NDP-α-MSH binding to membranes from B16-F10 mouse melanoma cells; conditions: Table 6, mean of triplicate
T1 construct: MC1-R membranes were isolated from B16—F10 mouse melanoma cells; endogenous in cells; host or cells: B16-F10 mouse melanoma cells
T1 sequence (Q01727 whole entry): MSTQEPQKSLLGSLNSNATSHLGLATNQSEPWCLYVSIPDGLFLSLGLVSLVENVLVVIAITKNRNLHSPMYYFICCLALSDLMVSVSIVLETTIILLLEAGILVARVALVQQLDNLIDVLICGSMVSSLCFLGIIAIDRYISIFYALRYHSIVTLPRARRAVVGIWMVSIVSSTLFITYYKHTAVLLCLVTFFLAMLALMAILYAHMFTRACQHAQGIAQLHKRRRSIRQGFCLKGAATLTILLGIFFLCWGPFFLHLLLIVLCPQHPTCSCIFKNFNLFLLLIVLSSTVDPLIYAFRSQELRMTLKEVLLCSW
In short: (§1)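 Membranes were incubated with 125I-NDP-α-MSH and a chosen concentration of Re-complexed peptide. Bound radioactivity was then measured, with 1 μM α-MSH defining complete inhibition. Finally, cpm were normalized against specific binding to yield percent inhibition.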

hMC5-R = biological target: T2, hMC5-R (Homo sapiens, UniProt P33032); experiment: Competitive binding assay: inhibition of 125I-NDP-α-MSH binding to HEK-293 membranes with cloned human receptor subtype 5; conditions: Table 6; 1 μM; mean of triplicate
T2 construct: expressed in transfected cells; host or cells: HEK-293
T2 sequence (P33032 whole entry): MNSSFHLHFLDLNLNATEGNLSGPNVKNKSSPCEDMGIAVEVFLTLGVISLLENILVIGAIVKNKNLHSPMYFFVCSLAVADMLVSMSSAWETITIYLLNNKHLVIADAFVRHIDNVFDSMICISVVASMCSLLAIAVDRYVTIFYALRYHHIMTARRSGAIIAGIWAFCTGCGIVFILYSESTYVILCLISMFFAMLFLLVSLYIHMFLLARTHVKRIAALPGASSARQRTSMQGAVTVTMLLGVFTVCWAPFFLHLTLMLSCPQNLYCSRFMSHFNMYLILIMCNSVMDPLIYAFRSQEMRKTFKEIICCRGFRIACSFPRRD
In short: as §1

hMC2-R = biological target: T3, hMC2-R (Homo sapiens, UniProt P41968); experiment: Competitive binding assay of additional compounds, Table 6 hMC2-R; conditions: 1 μM, mean of triplicate
T3 construct: expressed in transfected cells; host or cells: HEK-293
T3 sequence (P41968 whole entry): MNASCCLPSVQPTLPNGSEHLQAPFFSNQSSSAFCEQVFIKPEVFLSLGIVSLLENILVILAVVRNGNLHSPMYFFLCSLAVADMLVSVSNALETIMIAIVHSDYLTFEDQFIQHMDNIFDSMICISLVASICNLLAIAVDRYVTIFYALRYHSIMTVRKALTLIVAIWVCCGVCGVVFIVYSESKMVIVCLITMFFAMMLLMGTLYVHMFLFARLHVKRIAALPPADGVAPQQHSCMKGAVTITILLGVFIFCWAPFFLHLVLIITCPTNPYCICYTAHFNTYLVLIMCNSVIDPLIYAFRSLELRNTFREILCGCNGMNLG

MC4-R = biological target: T4, MC4-R (Homo sapiens, UniProt P32245); experiment: Competitive binding assay: inhibition of 125I-NDP-α-MSH binding to HEK-293 membranes with cloned human receptor subtype 4; conditions: Table 6, mean of triplicate
T4 construct: expressed in transfected cells; host or cells: HEK-293
T4 sequence (P32245 whole entry): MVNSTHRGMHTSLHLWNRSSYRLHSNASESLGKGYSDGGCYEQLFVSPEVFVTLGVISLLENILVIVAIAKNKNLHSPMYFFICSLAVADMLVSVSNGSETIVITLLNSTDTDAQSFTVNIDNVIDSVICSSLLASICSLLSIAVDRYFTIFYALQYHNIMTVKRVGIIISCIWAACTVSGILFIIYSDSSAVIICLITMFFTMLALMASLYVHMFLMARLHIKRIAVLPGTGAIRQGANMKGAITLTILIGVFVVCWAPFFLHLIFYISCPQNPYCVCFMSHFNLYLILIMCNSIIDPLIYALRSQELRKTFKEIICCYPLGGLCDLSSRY
In short: as §1

| Substance | % Inhibition of Binding MC1-R (MC1-R; 1 μM) | % Inhibition of Binding hMC5-R (hMC5-R) | % Inhibition of Binding hMC2-R (hMC2-R) | % Inhibition of Binding hMC4-R (MC4-R; 1 μM) | % Inhibition of Binding MC1-R (MC1-R; 0.1 μM) [%] | % Inhibition of Binding hMC2-R (hMC2-R; listed as NH2(CH2)6CO-Ser(Bzl)-D-Phe(4′-Cl)-Arg-Trp-Cys-NH2, 1 µM) [%] | % Inhibition of Binding hMC4-R (MC4-R; 0.1 μM) [%] |
| --- | --- | --- | --- | --- | --- | --- | --- |
| Naphthlyl-2-acetyl-D-Phe-Arg-Cys-Trp-NH2 ({Acetyl(2-naphthyl)}-[dF]RCW-NH2; also: metal complex) | 7% | 56% | 0% | 0% | – | – | – |
| 3′-Br-Phenylacetyl-His-Gly-D-Phe(4′-Cl)Trp-Cys-NH2 | 33% | 16% | 14% | 2% | – | – | – |
| Ac-Nle-Ala-His-D-Phe-Arg-Nal 1′-Cys-NH2 | 95% | 82% | 22% | 65% | – | – | – |
| [Igl][dF]RCW-NH2 | 38% and 36% | 67% and 64% | 7% and 0% | 14% and 20% | – | – | – |
| 3′-Br Phenyl acetyl-Arg-Arg-D-Phe(4′-Cl)-Cys-Bip-NH2 | 69% | 86% | 60% | 78% | – | – | – |
| 3′-Bromo phenyl acetyl-Arg-Ala-D-Phe(4′-Cl)-Cys-Trp-NH2 | 8% | 86% | 35% | 80% | – | – | – |
| 3′-Br Phenyl acetyl-Arg-Arg-D-Phe(3′-Cl)-Cys-Nal 2′-NH2 | 65% | 89% | 68% | 75% | – | – | – |
| D-Igl-D-Nal 2′-Arg-Cys-NH2 | 0% | 41% | 1% | 8% | – | – | – |
| Z-D-Pyr-D-Phe-Arg-Trp-Cys-NH2 ({code Z}-[d(pGlu)][dF]RWC-NH2; reading uncertain; also: metal complex, printed as Z-D-Pyr-D-Phe-Arg-Trp-Cys-NH2) | 44% | 28% | 16% | 46% | – | – | – |
| Ac-Ala-Ala-Ala-D-Phe-Arg-Cys-Trp-NH2 (Ac-AAA[dF]RCW-NH2; not fully specified; printed as Ac-Ala-Ala-Ala-D-Phe-Arg-Cys-Trp-NH2) | 5% | 0% | 0% | 3% | – | – | – |
| 3′-Br Phenyl acetyl-Arg-Arg-D-Bip-Cys-Trp-NH2 | 91% | 99% | 83% | 77% | – | – | – |
| Aic-D-Phe-Arg-Trp-Cys-NH2 | 9% | 38% | 4% | 18% | – | – | – |
| 1-amino-1-cyclopentane carboxyl-D-Phe-Arg-Cys-Trp-NH2 ([Ac5c][dF]RCW-NH2; N-terminus assumed; SMILES N=C(N)NCCC[C@H](NC(=O)[C@@H](Cc1ccccc1)NC(=O)C1(N)CCCC1)C(=O)N[C@@H](CS)C(=O)N[C@@H](Cc1c[nH]c2ccccc12)C(N)=O) | 78% | 60% | 0% | 16% | – | – | – |
| [dP][dF]RWC-NH2 | 1% | 35% | 0% | 18% | – | – | – |
| NH2-(CH2)6-CO-Ser(Bzl)-D-Phe(4′-Cl)-Arg-Trp-Cys-NH2 | 74% | 100% | 90% | 94% | 28 | 87 | 68 |
| [dIgl][dF]RCW-NH2 | 49% | 39% | 12% | 15% | – | – | – |
| Tiq-D-Phe-Arg-Trp-Cys-NH2 (Tiq-[dF]RWC-NH2; also: metal complex) | 7% | 55% | 7% | 8% | – | – | – |
| Tic-D-Phe(3′-Cl)-Arg-Trp-Cys-NH2 | 18% | 76% | 41% | 62% | – | – | – |
| Aic-D-Phe-Arg-Cys-Trp-NH2 | 59% | 71% | 0% | 21% | – | – | – |
| 3′-Br Phenyl acetyl-Arg-Arg-D-Phe(3′-Cl)-Cys-Nal 1′-NH2 | 61% | 83% | 49% | 62% | – | – | – |
| [dDip][dF]RWC-NH2 | 23% | 8% | 0% | 34% | – | – | – |
| 4′-Biphenylacetyl-D-Phe-Arg-Cys-Trp-NH2 ({Phenylacetyl(4-Ph)}-[dF]RCW-NH2; not fully specified; printed as 4′-Biphenylacetyl-D-Phe-Arg-Cys-Trp-NH2) | 1% | 50% | 0% | 0% | – | – | – |
| Ac-Nle-Ala-Ala-D-Phe-Arg-Cys-Trp-NH2 (Ac-[Nle]AA[dF]RCW-NH2; not fully specified; printed as Ac-Nle-Ala-Ala-D-Phe-Arg-Cys-Trp-NH2) | 34% | 20% | 9% | 12% | – | – | – |
| 3′-Phenylpropionyl-His-D-Phe-Arg-Cys-Trp-NH2 (Hydrocinnamoyl-H[dF]RCW-NH2; not fully specified; printed as 3′-Phenylpropionyl-His-D-Phe-Arg-Cys-Trp-NH2) | 75% | 50% | 2% | 16% | – | – | – |
| 3′-Bromo phenyl acetyl-Arg-Thr-D-Phe(4′-Cl)-Cys-NH2 | 8% | 2% | 6% | 1% | – | – | – |
| Tic-D-Phe(4′-Cl)-Arg-Trp-Cys-NH2 | 45% | 90% | 71% | 88% | – | – | – |
| 3′-Phenylpropionyl-D-Phe-Arg-Cys-Trp-NH2 (Hydrocinnamoyl-[dF]RCW-NH2; not fully specified; printed as 3′-Phenylpropionyl-D-Phe-Arg-Cys-Trp-NH2) | 3% | 44% | 0% | 0% | – | – | – |
| 3′-Br Phenyl acetyl-Arg-Arg-D-Phe(4′-Me)-Cys-NH2 | 94% and 84% | 88% | 87% | 99% and 93% | – | – | – |
